Assay results as given in patent US20250179126A1, “A NOVEL PEPTIDE FROM A PHOTOSYNTHETIC BACERIUM DIRECTLY TARGETS MITOCHONDRIA TO TRIGGER APOPTOSIS IN ADVANCED PROSTATE CANCER CELLS” (priority 2022, published 2025).
Entries after “also recorded” stand apart in the source; their conditions may differ.

How the values were obtained:
[1] = system: SKOV-3 ovarian cancer cells; experiment: MTT cell viability assay, SKOV-3 ovarian cancer cells; type: cell-based, human; conditions: 24 hr
Description: (§1) Cell viability was detected by MTT assays, and the control (PBS-treated) cells were considered 100% viable. Mean±SE (N=3). *P<0.05, **P<0.01, ***P<0.001.
(§2) Cell lines and culture: Human cancer and noncancer (immortalized and nonimmortalized) cell lines were obtained from the American Type Culture Collection [prostate cancer (PC3, DU145 and LNCaP), normal prostate (CRL11611), breast cancer (MCF-7), ovarian cancer (SK-OV3 adenocarcinoma), lung cancer (A549)]. MDD2 breast cancer cells (p53 dominant-negative) were provided courtesy of Dr Andrei V. Gudkov, Roswell Park Cancer Institute. 20 All cell lines were cultured in MEM-E (Invitrogen) supplemented with 10% heat-inactivated fetal bovine serum (Atlanta Biological, Inc.), 100 units/mL penicillin, and 100 μg/mL streptomycin at 37° C. in 5% CO2.
(§3) Cytotoxicity assay: The MTT assay was performed as we previously described (Cha et al., Cancer Research 2020, 80: 1615-1623).

[2] = system: DU145 prostate cancer cells; experiment: MTT cell viability assay, DU145 prostate cancer cells; type: cell-based, human
Description: as §1, §2

[3] = system: LNCaP prostate cancer cells; experiment: MTT cell viability assay, LNCaP prostate cancer cells; type: cell-based, human
Description: as §2

MDD2 breast cancer cells = experiment: MTT cell viability assay, MDD2 breast cancer cells; type: cell-based, human; conditions: MDD2 (p53 dominant negative), 0.1-100 μM, 24 hr
Description: as §2, §3

PC3 cells = experiment: JC-1 mitochondrial membrane potential assay; type: cell-based, human
Description: Cells were stained by using JC-1 Mitochondrial Membrane Potential Assay Kits according to the manufacturer's instructions to measure mitochondrial membrane potential, and fluorescence was measured by flow cytometry. 9B, Caspase-3 is involved in aurB-induced apoptosis. […] The inhibitor was used at the indicated concentrations. Mean±SE (N=3).
JC-1 dye (Invitrogen) was used to determine mitochondrial membrane potential. […] After washing with PBS, trypsinized PC3 cells were incubated with JC-1 dye and analyzed by FACS.

PC3 xenograft tumors = experiment: PC3 xenograft animal model; type: in vivo, athymic mice
Description: FIG. 10A-10D: Inhibition of PC3 xenograft tumor growth. 10A, When the s.c. tumors reached ˜5 mm, athymic mice were randomized into control (PBS) and i.p. treatment groups. Mean±SE (N=5). *P<0.01. […] 10C, At the end of treatment, tumors were dissected and weighed. * P<0.01. 10D, In sections of tumors from the control group, there was a marked increase in Ki-67-positive proliferating cells (stained brown and counterstained with haematoxylin, ×40), and only a few apoptotic cells were observed, as determined by TUNEL and caspase-3 (Casp-3) staining. There was an apparent sharp reduction in Ki-67-positive proliferating cells and a higher number of TUNEL-positive apoptotic cells in the aurB-treated group compared to the control group. Similarly, Casp-3 expression in aurB-treated tumors was increased markedly compared with that in untreated controls.
Xenograft animal model: Human prostate cancer cells (PC3) were injected s.c. into the right flanks of 5- to 6-week-old male athymic mice 78. When tumors reached 5 mm in diameter, animals were randomized into control and treatment groups. […] All animals were weighed twice a week. At necropsy, tumors were dissected and weighed. Statistical comparisons were performed by one-way analysis of variance (ANOVA) (control vs treatment). Tumor samples were fixed overnight in 10% buffered formalin. Fixation was followed by dehydration, clearing and infiltration. Samples were then embedded in paraffin, and 4 μm sections were cut on a microtome. Ki67 (LabVision) staining was performed on the tissue sections using a Vector Vectastain Elite ABC Kit. The TUNEL assay was performed on the sections using a Millipore Sigma ApopTag® Peroxidase In Situ Apoptosis Detection Kit.

[4] = tumor sections, aurB 5 mg/kg daily i.p.

With “LVN GGD DVA AAV NTA AQN NAD ALF VPPP (LVNGGDDVAAAVNTAAQNNADALFVPPP) [aurB]” the “effect on p53-inactive cancer cells (MTT)” value ([1]; SKOV3 (p53-null), 0.1-100 μM) was “dose-dependent”, the “anti-proliferative effect (MTT cell viability)” value ([1]; SKOV-3, 5-100 μM) was “clear dose-dependent effects” and the “cytotoxic effect (MTT cell viability)” value ([2]; DU145 (p53-mutant, AR−), 24-72 hr, paclitaxel 1 nM) was “significantly induced dose-dependent cytotoxic effects; also recorded: more sensitive than the normal prostate cell line”. For the same substance, the inhibition rate ([2]; DU145, 100 μM for 72 hr) was ~50%, the “anti-proliferative effect (MTT cell viability)” value ([2]; DU145, 5-100 μM, 24 hr) was “clear dose-dependent effects” and the “cytotoxic effect (MTT cell viability)” value ([3]; LNCaP (p53 wild-type, AR+), 24-72 hr, paclitaxel 1 nM) was “significantly induced dose-dependent cytotoxic effects; also recorded: more sensitive than the normal prostate cell line”. For the same substance, the inhibition rate ([3]; LNCaP, 100 μM for 72 hr) was ~50%, the “effect on p53-inactive cancer cells (MTT)” value (MDD2 breast cancer cells) was “dose-dependent” and the “change of mitochondrial membrane potential (JC-1)” value (“change … (JC-1)” for short) (PC3 cells; PC3, 1 μM) was 17%. The “change … (JC-1)” value (PC3 cells; PC3, 10 μM) was 21%, the “change … (JC-1)” value (PC3 cells; PC3, 100 μM) was 32% and the “effect on mitochondrial membrane potential (JC-1)” value (PC3 cells; PC3, 1, 10 and 100 μM) was “dose-dependently increased”. The tumor weight (PC3 xenograft tumors; at end of treatment, aurB 5 mg/kg daily i.p.) was “significantly decreased tumor weight”, the “tumor growth inhibition vs PBS control” value (PC3 xenograft tumors; end of treatment, four weeks i.p., aurB 5 mg/kg daily, Ptxl 10 mg/kg once a week) was ~65% and the “antitumor effect on PC3 tumor growth” value (PC3 xenograft tumors; four weeks i.p., aurB 5 mg/kg daily, p28 10 mg/kg daily) was “significantly inhibited”. The “behavioral change, body weight” value (PC3 xenograft tumors; four weeks of i.p. treatment) was “without inducing either a behavioral change or a loss in body weight”, the “Ki-67-positive proliferating cells in tumors” value (PC3 xenograft tumors; [4]) was “substantially reduce the number of proliferating Ki-67-positive cells” and the “TUNEL-positive apoptotic cells in tumors” value (PC3 xenograft tumors; [4]) was “number of apoptotic cells was increased”. The “caspase-3-positive cancer cells in tumors” value (PC3 xenograft tumors; [4]) was “substantial increase in caspase-3-positive cancer cells”.
